Data as given in the Kinase Knowledgebase extract (Sharma et al. 2016).

Each compound was assayed against CDK2 (human) (UniProt P24941) (assay: Enzyme Assay).
Cc1n[nH]cc1-c1ccnc(NC2CCN(Cc3ccccc3)C2)n1 (centres undefined) was tested, and the IC50 was < 10 µM.
For Cc1n[nH]cc1-c1ccnc(NC2CCc3ccccc32)n1 (centres undefined), the IC50 was < 10 µM.
In the case of COCC(C)Nc1nccc(-c2c[nH]nc2C(C)C)n1 (centres undefined), the IC50 is reported as < 1 µM.
With CC(C)c1[nH]ncc1-c1ccnc(NCCOc2ccccc2)c1 the IC50 was < 10 µM.
For Cc1n[nH]cc1-c1ccnc(NC2CCCC2)n1, the IC50 was < 5 µM.
For CC(CCCC(C)(C)O)Nc1nccc(-c2c[nH]nc2C(C)C)n1 (centres undefined), the IC50 was < 5 µM.
In the case of Cc1n[nH]cc1-c1ccnc(NCCCO)n1, the IC50 is reported as < 15 µM.
In the case of CCCCNc1nccc(-c2c[nH]nc2C)n1, the IC50 is reported as < 10 µM.
For CC(C)c1n[nH]cc1-c1ccnc(NCc2ccc(N(C)C)cc2)n1, the IC50 was < 5 µM.
In the case of CCC(C)Nc1cc(-c2cn[nH]c2C(C)C)ccn1 (centres undefined), the IC50 is reported as < 1 µM.
For c1cc(-c2cn[nH]c2C2CCCC2)cc(NCC2CC2)n1, the IC50 was < 5 µM.
For CC(C)c1n[nH]cc1-c1ccnc(N[C@@H]2CCc3ccccc32)n1, the IC50 was < 5 µM.
With Cc1cccc(CNc2cc(-c3cn[nH]c3C3CCCC3)ccn2)c1 the IC50 was < 5 µM.
With CC(C)c1n[nH]c(Br)c1-c1ccnc(NC2CCN(C)CC2)n1 the IC50 was < 5 µM.
For CCC(CC)c1[nH]ncc1-c1ccnc(NCc2ccccc2C)c1, the IC50 was < 5 µM.
For CC(C)c1n[nH]cc1-c1ccnc(NC2CCc3cc(F)ccc32)n1 (centres undefined), the IC50 was < 0.5 µM.
With CC(C)c1[nH]ncc1-c1ccnc(Nc2ccccc2)c1 the IC50 was < 0.05 µM.
In the case of Cc1ccccc1CNc1cc(-c2cn[nH]c2C2CCCC2)ccn1, the IC50 is reported as < 5 µM.
For CC(C)c1[nH]ncc1-c1ccnc(NC2CCC2)c1, the IC50 was < 0.5 µM.
With COc1ccc(CNc2cc(-c3cn[nH]c3C(C)C)ccn2)cc1 the IC50 was < 5 µM.
Cc1n[nH]cc1-c1ccnc(NCCC#N)n1 was tested, and the IC50 was < 15 µM.
With CCCNc1cc(-c2cn[nH]c2C(C)C)ccn1 the IC50 was < 5 µM.
With CC(C)c1[nH]ncc1-c1ccnc(NCc2cc(F)cc(F)c2)c1 the IC50 was < 5 µM.
With c1cc(-c2cn[nH]c2C2CCCC2)cc(NC2CCCCCC2)n1 the IC50 was < 1 µM.
Cc1nnc(C(C)Nc2nccc(-c3c[nH]nc3C(C)C)n2)[nH]1 (centres undefined) was tested, and the IC50 was < 15 µM.
In the case of Cc1n[nH]cc1-c1ccnc(NC2CCN(c3ccccc3)CC2)n1, the IC50 is reported as < 5 µM.
Cc1nnc(CCNc2nccc(-c3c[nH]nc3C(C)C)n2)[nH]1 was tested, and the IC50 was < 5 µM.
Cc1cc(C)n(CCNc2nccc(-c3c[nH]nc3C(C)C)n2)n1 was tested, and the IC50 was < 15 µM.
In the case of CC(C)CCNc1cc(-c2cn[nH]c2C(C)C)ccn1, the IC50 is reported as < 5 µM.
With CC(C)c1n[nH]cc1-c1ccnc(N[C@H]2CCCc3ccccc32)n1 the IC50 was < 0.5 µM.
With c1cncc(CCNc2cc(-c3cn[nH]c3C3CCCC3)ccn2)c1 the IC50 was < 5 µM.
For CC(C)c1[nH]ncc1-c1ccnc(NCCc2ccccc2)c1, the IC50 was < 1 µM.
In the case of CC(=O)NCCNc1nccc(-c2c[nH]nc2C)n1, the IC50 is reported as < 15 µM.
CC(C)c1[nH]ncc1-c1ccnc(NC2CCN(Cc3ccccc3)CC2)c1 was tested, and the IC50 was < 15 µM.
In the case of Cc1ccccc1CNc1cc(-c2cn[nH]c2C(C)C)ccn1, the IC50 is reported as < 5 µM.
With CC(C)c1[nH]ncc1-c1ccnc(NCCCn2ccnc2)c1 the IC50 was < 1 µM.
For Cc1cnc(NC2CCN(C)CC2)nc1-c1c[nH]nc1C(C)C, the IC50 was < 5 µM.
CC(C)CNc1nccc(-c2c[nH]nc2C(C)C)n1 was tested, and the IC50 was < 0.1 µM.
CC(C)c1[nH]ncc1-c1ccnc(NCc2ccc(F)cc2)c1 was tested, and the IC50 was < 5 µM.
For c1cc(-c2cn[nH]c2C2CCCC2)cc(NC2CCCCC2)n1, the IC50 was < 1 µM.
With c1ccc2c(c1)CC(Nc1cc(-c3cn[nH]c3C3CC3)ccn1)C2 the IC50 was < 1 µM.
In the case of CC(C)c1n[nH]cc1-c1ccnc(NCCCN(C)c2ccccc2)n1, the IC50 is reported as < 5 µM.
For Cc1n[nH]cc1-c1ccnc(NC2CCCNC2)n1 (centres undefined), the IC50 was < 5 µM.
With CC(C)c1[nH]ncc1-c1ccnc(NC2CC2)c1 the IC50 was < 1 µM.
In the case of CC(C)c1[nH]ncc1-c1ccnc(NC2CCCCCC2)c1, the IC50 is reported as < 0.5 µM.
With Cc1ccc(CNc2cc(-c3cn[nH]c3C(C)C)ccn2)cc1 the IC50 was < 5 µM.
For CC(C)c1n[nH]cc1-c1ccnc(N[C@@H](C)c2ccccc2)n1, the IC50 was < 10 µM.
For CCC(CC)c1[nH]ncc1-c1ccnc(NC2CCN(C)CC2)c1, the IC50 was < 10 µM.
Cc1ccccc1CNc1nccc(-c2c[nH]nc2C)n1 was tested, and the IC50 was < 10 µM.
In the case of Cc1n[nH]cc1-c1ccnc(NCc2ccc(F)cc2)n1, the IC50 is reported as < 10 µM.
For c1cc(-c2cn[nH]c2C2CCCC2)cc(NC2CC2)n1, the IC50 was < 1 µM.
In the case of Cc1n[nH]cc1-c1ccnc(NCC2CC2)n1, the IC50 is reported as < 10 µM.
With Cc1n[nH]cc1-c1ccnc(NCC(C)C)n1 the IC50 was < 5 µM.
With CCC(C)Nc1nccc(-c2c[nH]nc2C(C)C)n1 (centres undefined) the IC50 was < 0.5 µM.
